From patent publication US11572369B2, “Bicyclic pyridine compositions and methods of using the same for cancer therapy” (UNIVERSITY OF SOUTH CAROLINA, priority 2019, dated 2023)

Key:
Experiment in all cases: KINOMEscan
Format in all cases: binding
Settings in all cases: 2000 nM
GRK7 = target: T1, GRK7 (Homo sapiens, UniProt Q8WTQ7)
T1 construct: DNA label (for qPCR read-out); purchased DiscoveRx (KINOMEscan scanMAX panel, contract assay)

TYRO3 = target: T2, TYRO3 (Homo sapiens, UniProt Q06418)
T2 construct: DNA label (for qPCR read-out); purchased DiscoveRx (KINOMEscan scanMAX panel)

CSNK1D = target: T3, CSNK1D (Homo sapiens, UniProt P48730)
T3 construct: DNA label (qPCR read-out); purchased DiscoverX (assay service)

CDK4-cyclinD3 = target: T4, CDK4-cyclinD3 (Homo sapiens, UniProt P11802)
T4 construct: purchased DiscoverX (KINOMEscan service)

LRRK2(G2019S) = target: T5, LRRK2(G2019S) (Homo sapiens, UniProt Q5S007, G2019S)
T5 construct: purchased KINOMEscan (DiscoveRx) panel service

FLT3(D835Y) = target: T6, FLT3(D835Y) (Homo sapiens, UniProt P36888, D835Y)
T6 construct: purchased DiscoveRx (KINOMEscan scanMAX panel)

IKK-beta = target: T7, IKK-beta (Homo sapiens, UniProt O14920)
T7 construct: DNA label (qPCR read-out); purchased KINOMEscan (DiscoveRx) ScanMAX panel

EGFR(S752-I759del) = target: T8, EGFR(S752-I759del) (Homo sapiens, UniProt P00533, DEL752-759)
T8 construct: purchased DiscoveRx (KINOMEscan scanMAX panel)

DRAK1 = target: T9, DRAK1 (Homo sapiens, UniProt Q9UEE5)
T9 construct: DNA label (qPCR read-out); purchased KINOMEscan (DiscoveRx) panel

ROCK2 = target: T10, ROCK2 (Homo sapiens, UniProt O75116)
T10 construct: DNA label (qPCR read-out); purchased DiscoveRx (KINOMEscan ScanMAX panel)

MYLK4 = target: T11, MYLK4 (Homo sapiens, UniProt Q86YV6)
T11 construct: DNA label (for qPCR read-out); purchased KINOMEscan scanMAX panel (DiscoveRx)

DMPK = target: T12, DMPK (Homo sapiens, UniProt Q09013)
T12 construct: DNA label (qPCR read-out); purchased KINOMEscan (DiscoveRx) panel

ERK4 = target: T13, ERK4 (Homo sapiens, UniProt P31152)
T13 construct: DNA label (qPCR read-out); purchased DiscoveRx (KINOMEscan ScanMAX panel)

FLT3 = target: T14, FLT3 (Homo sapiens, UniProt P36888)
T14 construct: purchased DiscoveRx (KINOMEscan scanMAX panel)

ERBB4 = target: T15, ERBB4 (Homo sapiens, UniProt Q15303)
T15 construct: DNA label (qPCR read-out); purchased DiscoveRx (KINOMEscan ScanMAX panel)

SRMS = target: T16, SRMS (Homo sapiens, UniProt Q9H3Y6)
T16 construct: purchased KINOMEscan (DiscoveRx)

PRKR = target: T17, PRKR (Homo sapiens, UniProt P19525)
T17 construct: purchased DiscoveRx (KINOMEscan scanMAX panel)

[1] = target: ABL1(Q252H)-phosphorylated (Homo sapiens, UniProt P00519, Q252H)
DAPK1 = target: T18, DAPK1 (Homo sapiens, UniProt P53355)
T18 construct: DNA label; purchased DiscoveRx (KINOMEscan scanMAX panel)

[2] = target: ABL1(F317L)-phosphorylated (Homo sapiens, UniProt P00519, F317L)
MST1R = target: T19, MST1R (Homo sapiens, UniProt Q04912)
T19 construct: DNA label (qPCR read-out); purchased KINOMEscan scanMAX panel (DiscoveRx)

[3] = target: T20, RSK2(Kin.Dom.2-C-terminal) (Homo sapiens, UniProt P51812)
T20 construct: RSK2(Kin.Dom.2); purchased DiscoveRx (KINOMEscan scanMAX panel)

CAMK4 = target: T21, CAMK4 (Homo sapiens, UniProt Q16566)
T21 construct: DNA label (qPCR read-out); purchased KINOMEscan (ScanMAX panel service)

GRK1 = target: T22, GRK1 (Homo sapiens, UniProt Q15835)
T22 construct: purchased KINOMEscan (DiscoveRx)

DCAMKL2 = target: T23, DCAMKL2 (Homo sapiens, UniProt Q8N568)
T23 construct: DNA label (qPCR read-out); purchased KINOMEscan (DiscoveRx) panel

PIK3CA(H1047Y) = target: T24, PIK3CA(H1047Y) (Homo sapiens, UniProt P42336, H1047Y)
T24 construct: DNA label; purchased DiscoveRx (KINOMEscan scanMAX panel)

RET(V804L) = target: T25, RET(V804L) (Homo sapiens, UniProt P07949, V804L)
T25 construct: purchased DiscoveRx (KINOMEscan scanMAX panel)

EPHB2 = target: T26, EPHB2 (Homo sapiens, UniProt P29323)
T26 construct: purchased DiscoveRx (KINOMEscan scanMAX panel)

TRKC = target: T27, TRKC (Homo sapiens, UniProt Q16288)
T27 construct: DNA label (qPCR read-out); purchased KINOMEscan (DiscoveRx) ScanMAX panel

MYO3B = target: T28, MYO3B (Homo sapiens, UniProt Q8WXR4)
T28 construct: DNA label (for qPCR read-out); purchased KINOMEscan scanMAX panel (DiscoveRx)

SGK2 = target: T29, SGK2 (Homo sapiens, UniProt Q9HBY8)
T29 construct: purchased KINOMEscan (DiscoveRx)

LTK = target: T30, LTK (Homo sapiens, UniProt P29376)
T30 construct: purchased KINOMEscan (DiscoveRx) panel service

IRAK1 = target: T31, IRAK1 (Homo sapiens, UniProt P51617)
T31 construct: DNA label (qPCR read-out); purchased KINOMEscan (DiscoveRx) ScanMAX panel

ACVRL1 = target: T32, ACVRL1 (Homo sapiens, UniProt P37023)
T32 construct: purchased DiscoveRx (KINOMEscan scanMAX panel, service)

CAMK1D = target: T33, CAMK1D (Homo sapiens, UniProt Q8IU85)
T33 construct: DNA label (qPCR read-out); purchased KINOMEscan (ScanMAX panel service)

T3 sequence (P48730 whole entry): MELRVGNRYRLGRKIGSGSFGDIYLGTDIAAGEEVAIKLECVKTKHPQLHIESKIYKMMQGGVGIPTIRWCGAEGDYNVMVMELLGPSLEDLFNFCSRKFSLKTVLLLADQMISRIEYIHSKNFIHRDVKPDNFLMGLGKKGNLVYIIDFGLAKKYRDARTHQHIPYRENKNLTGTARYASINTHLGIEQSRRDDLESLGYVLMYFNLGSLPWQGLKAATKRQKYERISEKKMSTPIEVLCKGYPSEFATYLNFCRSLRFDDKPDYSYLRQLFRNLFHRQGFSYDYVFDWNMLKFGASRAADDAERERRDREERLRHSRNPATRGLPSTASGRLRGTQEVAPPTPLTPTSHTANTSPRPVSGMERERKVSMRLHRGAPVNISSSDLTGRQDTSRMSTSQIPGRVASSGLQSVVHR
T31 sequence (P51617 whole entry): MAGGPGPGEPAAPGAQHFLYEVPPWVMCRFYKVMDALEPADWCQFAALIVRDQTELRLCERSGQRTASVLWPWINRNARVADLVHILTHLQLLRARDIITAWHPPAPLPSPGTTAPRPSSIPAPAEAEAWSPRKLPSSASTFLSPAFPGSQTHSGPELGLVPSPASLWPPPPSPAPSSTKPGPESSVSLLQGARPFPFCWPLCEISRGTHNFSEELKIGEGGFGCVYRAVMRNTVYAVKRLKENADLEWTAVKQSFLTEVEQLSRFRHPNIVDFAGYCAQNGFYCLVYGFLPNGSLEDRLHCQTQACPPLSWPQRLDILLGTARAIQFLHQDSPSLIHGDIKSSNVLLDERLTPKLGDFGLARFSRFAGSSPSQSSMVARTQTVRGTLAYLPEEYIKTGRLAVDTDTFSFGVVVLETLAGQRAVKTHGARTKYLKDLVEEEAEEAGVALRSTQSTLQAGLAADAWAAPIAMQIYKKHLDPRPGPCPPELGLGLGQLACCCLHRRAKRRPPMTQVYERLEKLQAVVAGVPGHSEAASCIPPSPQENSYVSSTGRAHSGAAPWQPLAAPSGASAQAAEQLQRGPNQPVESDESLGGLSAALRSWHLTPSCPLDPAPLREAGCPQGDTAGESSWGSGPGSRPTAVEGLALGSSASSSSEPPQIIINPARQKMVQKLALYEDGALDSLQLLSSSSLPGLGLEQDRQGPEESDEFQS
T25 sequence (P07949 29-1114 V804L): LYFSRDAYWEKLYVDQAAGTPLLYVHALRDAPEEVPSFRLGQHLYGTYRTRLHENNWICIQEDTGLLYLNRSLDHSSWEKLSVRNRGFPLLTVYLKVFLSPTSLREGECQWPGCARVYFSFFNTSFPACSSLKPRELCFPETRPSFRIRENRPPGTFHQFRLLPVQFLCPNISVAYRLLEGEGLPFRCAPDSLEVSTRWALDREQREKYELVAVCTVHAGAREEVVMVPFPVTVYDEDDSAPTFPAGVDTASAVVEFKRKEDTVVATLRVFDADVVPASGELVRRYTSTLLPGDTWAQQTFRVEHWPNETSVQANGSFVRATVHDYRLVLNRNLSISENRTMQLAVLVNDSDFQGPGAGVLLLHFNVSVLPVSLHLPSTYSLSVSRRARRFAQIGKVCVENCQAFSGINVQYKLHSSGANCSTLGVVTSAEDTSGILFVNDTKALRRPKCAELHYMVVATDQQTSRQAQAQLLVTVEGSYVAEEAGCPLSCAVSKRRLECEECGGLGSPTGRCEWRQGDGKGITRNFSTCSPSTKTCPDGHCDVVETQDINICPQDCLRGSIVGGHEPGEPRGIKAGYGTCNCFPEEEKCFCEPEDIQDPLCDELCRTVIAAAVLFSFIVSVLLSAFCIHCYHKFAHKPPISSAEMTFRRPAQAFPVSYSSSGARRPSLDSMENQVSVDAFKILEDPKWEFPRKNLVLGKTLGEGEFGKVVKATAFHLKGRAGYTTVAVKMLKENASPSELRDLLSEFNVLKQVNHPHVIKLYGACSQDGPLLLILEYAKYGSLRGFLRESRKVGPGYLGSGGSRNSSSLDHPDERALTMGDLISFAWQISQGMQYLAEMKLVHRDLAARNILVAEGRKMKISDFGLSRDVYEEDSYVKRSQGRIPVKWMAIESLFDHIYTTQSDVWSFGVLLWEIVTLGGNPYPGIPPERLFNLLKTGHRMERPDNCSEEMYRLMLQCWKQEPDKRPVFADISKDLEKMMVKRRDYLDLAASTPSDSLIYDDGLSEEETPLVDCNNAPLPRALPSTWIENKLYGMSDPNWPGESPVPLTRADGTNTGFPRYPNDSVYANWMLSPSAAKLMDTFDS
T21 sequence (Q16566 whole entry): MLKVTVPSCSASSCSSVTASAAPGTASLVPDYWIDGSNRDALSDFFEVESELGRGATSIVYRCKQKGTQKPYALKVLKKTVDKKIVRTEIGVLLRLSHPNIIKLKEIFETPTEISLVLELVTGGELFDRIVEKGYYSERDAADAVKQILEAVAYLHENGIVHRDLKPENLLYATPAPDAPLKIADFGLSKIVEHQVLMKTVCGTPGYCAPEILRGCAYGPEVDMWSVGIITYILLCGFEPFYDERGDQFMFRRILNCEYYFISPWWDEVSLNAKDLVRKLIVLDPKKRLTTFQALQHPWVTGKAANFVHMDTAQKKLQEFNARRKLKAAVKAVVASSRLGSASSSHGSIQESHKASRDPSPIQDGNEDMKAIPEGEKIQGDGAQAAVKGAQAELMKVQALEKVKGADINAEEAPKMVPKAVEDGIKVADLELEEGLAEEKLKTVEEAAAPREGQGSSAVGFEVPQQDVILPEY
T24 sequence (P42336 whole entry H1047Y): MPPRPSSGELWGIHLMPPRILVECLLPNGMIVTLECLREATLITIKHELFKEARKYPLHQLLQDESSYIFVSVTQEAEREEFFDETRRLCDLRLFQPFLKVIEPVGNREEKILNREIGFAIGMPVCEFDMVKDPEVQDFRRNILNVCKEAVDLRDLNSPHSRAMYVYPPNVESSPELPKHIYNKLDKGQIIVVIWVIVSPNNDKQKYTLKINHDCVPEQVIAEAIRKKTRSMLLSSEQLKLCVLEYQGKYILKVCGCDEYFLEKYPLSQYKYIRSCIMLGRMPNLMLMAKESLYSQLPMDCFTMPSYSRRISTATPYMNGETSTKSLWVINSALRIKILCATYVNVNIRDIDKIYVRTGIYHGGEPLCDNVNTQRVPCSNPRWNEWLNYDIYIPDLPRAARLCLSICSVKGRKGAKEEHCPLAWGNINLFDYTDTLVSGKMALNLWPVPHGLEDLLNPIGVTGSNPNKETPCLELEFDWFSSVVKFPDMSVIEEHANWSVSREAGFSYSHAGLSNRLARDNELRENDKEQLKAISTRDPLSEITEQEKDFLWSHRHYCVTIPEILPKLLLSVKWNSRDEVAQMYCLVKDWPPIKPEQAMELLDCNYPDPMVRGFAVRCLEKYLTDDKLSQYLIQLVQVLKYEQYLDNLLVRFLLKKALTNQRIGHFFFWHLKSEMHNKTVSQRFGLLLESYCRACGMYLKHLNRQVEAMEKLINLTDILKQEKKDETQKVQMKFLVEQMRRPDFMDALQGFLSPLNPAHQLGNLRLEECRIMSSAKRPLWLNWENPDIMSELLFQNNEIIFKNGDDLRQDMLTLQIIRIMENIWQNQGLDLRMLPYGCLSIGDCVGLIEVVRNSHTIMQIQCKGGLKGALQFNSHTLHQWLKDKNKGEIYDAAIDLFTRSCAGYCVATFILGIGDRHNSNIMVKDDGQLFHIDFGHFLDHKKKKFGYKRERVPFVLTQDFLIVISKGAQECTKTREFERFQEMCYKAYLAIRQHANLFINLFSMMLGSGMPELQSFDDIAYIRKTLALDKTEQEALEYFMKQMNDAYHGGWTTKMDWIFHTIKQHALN
T30 sequence (P29376 17-864): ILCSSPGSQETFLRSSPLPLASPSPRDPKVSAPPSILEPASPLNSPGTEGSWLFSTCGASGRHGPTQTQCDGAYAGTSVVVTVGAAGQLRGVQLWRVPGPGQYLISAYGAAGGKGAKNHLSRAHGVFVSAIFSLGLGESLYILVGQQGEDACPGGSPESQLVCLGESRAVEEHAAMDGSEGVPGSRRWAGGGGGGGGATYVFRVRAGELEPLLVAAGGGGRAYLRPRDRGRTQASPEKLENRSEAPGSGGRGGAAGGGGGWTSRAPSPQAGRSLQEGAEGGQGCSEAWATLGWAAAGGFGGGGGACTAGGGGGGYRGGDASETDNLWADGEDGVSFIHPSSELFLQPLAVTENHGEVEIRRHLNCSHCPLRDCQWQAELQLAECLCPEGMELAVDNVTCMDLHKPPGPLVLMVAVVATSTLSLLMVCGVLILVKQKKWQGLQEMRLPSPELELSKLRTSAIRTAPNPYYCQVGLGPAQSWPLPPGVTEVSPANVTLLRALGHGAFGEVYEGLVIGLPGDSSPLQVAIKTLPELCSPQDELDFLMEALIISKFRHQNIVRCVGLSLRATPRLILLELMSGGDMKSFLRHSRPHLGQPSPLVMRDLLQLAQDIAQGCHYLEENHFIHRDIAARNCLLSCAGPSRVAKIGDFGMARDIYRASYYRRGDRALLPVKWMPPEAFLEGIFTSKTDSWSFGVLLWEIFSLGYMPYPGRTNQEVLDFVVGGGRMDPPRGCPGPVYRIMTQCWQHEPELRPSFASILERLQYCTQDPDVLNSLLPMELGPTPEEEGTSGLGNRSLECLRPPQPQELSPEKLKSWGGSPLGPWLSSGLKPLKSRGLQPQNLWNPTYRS
T20 sequence (P51812 422-679 limits assumed): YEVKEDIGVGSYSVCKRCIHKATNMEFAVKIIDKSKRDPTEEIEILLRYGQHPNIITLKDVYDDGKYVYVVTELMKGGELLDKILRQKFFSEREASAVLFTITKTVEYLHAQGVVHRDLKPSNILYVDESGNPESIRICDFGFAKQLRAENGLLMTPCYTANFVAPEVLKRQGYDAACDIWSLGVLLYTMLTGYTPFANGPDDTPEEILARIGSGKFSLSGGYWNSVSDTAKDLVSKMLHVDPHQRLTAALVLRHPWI

SMILES | % Ctrl (GRK7) [% Ctrl] | % Ctrl (TYRO3) [% Ctrl] | % Ctrl (CSNK1D) [% Ctrl] | % Ctrl (CDK4-cyclinD3) [% Ctrl] | % Ctrl (LRRK2(G2019S)) [% Ctrl] | % Ctrl (FLT3(D835Y)) [% Ctrl] | % Ctrl (IKK-beta) [% Ctrl] | % Ctrl (EGFR(S752-I759del)) [% Ctrl] | % Ctrl (DRAK1) [% Ctrl] | % Ctrl (ROCK2) [% Ctrl] | % Ctrl (MYLK4) [% Ctrl] | % Ctrl (DMPK) [% Ctrl] | % Ctrl (ERK4) [% Ctrl] | % Ctrl (FLT3) [% Ctrl] | % Ctrl (ERBB4) [% Ctrl] | % Ctrl (SRMS) [% Ctrl] | % Ctrl (PRKR) [% Ctrl] | % Ctrl [1] [% Ctrl] | % Ctrl (DAPK1) [% Ctrl] | % Ctrl [2] [% Ctrl] | further results
CN(C)C(=O)c1ccc(N2CCCN(c3ccnc4sc(C(N)=O)c(N)c34)CC2)cc1 [15u, 3-amino-4-(4-(4-(dimethylcarbamoyl)phenyl)-1,4-diazepan-1-yl)thieno[2,3-b]pyridine-2-carboxamide] | 100 | 100 | 20 | 95 | 90 | 46 | 89 | 86 | 100 | 100 | 100 | 97 | 72 | 94 | 85 | 81 | 100 | 94 | 92 | 97 | % Ctrl (MST1R): 97 % Ctrl; % Ctrl [3]: 94 % Ctrl; % Ctrl (CAMK4): 96 % Ctrl; % Ctrl (GRK1): 98 % Ctrl; % Ctrl (DCAMKL2): 100 % Ctrl; % Ctrl (PIK3CA(H1047Y)): 79 % Ctrl; % Ctrl (RET(V804L)): 100 % Ctrl; % Ctrl (EPHB2): 99 % Ctrl; % Ctrl (TRKC): 91 % Ctrl; % Ctrl (MYO3B): 87 % Ctrl; % Ctrl (SGK2): 100 % Ctrl; % Ctrl (LTK): 90 % Ctrl; % Ctrl (IRAK1): 94 % Ctrl; % Ctrl (ACVRL1): 99 % Ctrl; % Ctrl (CAMK1D): 87 % Ctrl
[2H]C([2H])([2H])N(C(=O)c1ccc(N2CCCN(c3ccnc4sc(C(N)=O)c(N)c34)CC2)cc1)C([2H])([2H])[2H] [15u_D6, 3-amino-4-(4-(4-(bis(methyl-d3)carbamoyl)phenyl)-1,4-diazepan-1-yl)thieno[2,3-b]pyridine-2-carboxamide] | 92 | 100 | 22 | 97 | 76 | 100 | 71 | 100 | 100 | 80 | 94 | 97 | 100 | 86 | 100 | 93 | 100 | 75 | 88 | 82 | % Ctrl (MST1R): 99 % Ctrl; % Ctrl [3]: 92 % Ctrl; % Ctrl (CAMK4): 79 % Ctrl; % Ctrl (GRK1): 81 % Ctrl; % Ctrl (DCAMKL2): 100 % Ctrl; % Ctrl (PIK3CA(H1047Y)): 100 % Ctrl; % Ctrl (RET(V804L)): 100 % Ctrl; % Ctrl (EPHB2): 95 % Ctrl; % Ctrl (TRKC): 85 % Ctrl; % Ctrl (MYO3B): 100 % Ctrl; % Ctrl (SGK2): 81 % Ctrl; % Ctrl (LTK): 77 % Ctrl; % Ctrl (IRAK1): 84 % Ctrl; % Ctrl (ACVRL1): 100 % Ctrl; % Ctrl (CAMK1D): 93 % Ctrl
